Reference: patent publication US9138659B2, “Compositions, methods, and systems relating to controlled crystallization and/or nucleation of molecular species” (Massachusetts Institute of Technology, priority 2010, dated 2015)
≈ marks a conversion by molar mass, not a printed value. Entries after “also recorded” stand apart in the source; their conditions may differ. One block for each compound: values may come before it.

Columns and labels:
[1] = CBZ nucleation induction time and polymorphic outcome with PEGMDA microgels in ethanol; assay type: physicochemical
Source text: Results and Discussion: Monodispersed cubelike PEGMDA microgels (FIG. 27 left), with M ranging from 130 to 700 g/mol were synthesized by Stop-Flow Lithography, The mesh sizes vary from 0.7 to 1.5 nm in solvent ethanol (Table 9), estimated from equilibrium swelling by the Flory-Rehner theory. The accuracy of this method for obtaining mesh sizes has been confirmed with Small-Angle Neutron Scattering in a different solvent. The microgels were utilized for controlling polymorph crystallization by suspending ˜10 μg of microgels per 1 ml solution by stiffing. Such a low microgel concentration may be sufficient to effect drastic change in the crystallization behavior (discussed later), underscoring the effectiveness of polymer microgels in controlling crystallization. In all crystallization experiments, supersaturation of the solution was generated by cooling instead of solvent evaporation, despite its popularity in numerous polymorph studies, to yield better control over the crystallization process.
Occasionally, pure Form III was also obtained from bulk experiments. […] However, such polymorph selectivity could not be attained using microgels with M<400 g/mol (˜100 trials) where the polymorphic outcome was quite similar to that of the bulk samples (Table 9), only with a decreased mass fraction of Form I in the mixture obtained (FIG. 28 discussed later) and a lower frequency of occurrence of Form III.
Average mesh size ξ was estimated from equilibrium swelling experiments in solvent ethanol. Induction time distribution data were fitted with stretched exponentials via nonlinear least square regression: P=exp[−(t/τ)^β], where P is the probability to observe no crystallization event within time t.
Induction time was measured by monitoring IR transmission signal passing through a solution in controlled temperature environment and stirring condition. Once nucleation occurred, the solution became turbid in seconds indicated by a sharp drop of IR signal, due to secondary nucleation and rapid crystal growth. The statistical nature of nucleation necessitated a large number of experiments (50-100) for obtaining the distribution of induction times, from which the average induction time τ was regressed with a stretched-exponential model, P(t)=exp[−(t/τ)^β], where P is the probability to observe no crystallization event within time t. In brief, the stretched-exponential model modified the single exponential model derived from the Poisson statistics, P(t)=exp (−t/τ) by adding an exponent β to the dimensionless induction time t/τ to capture the spread in characteristic time scales caused by a distribution of nucleation active sites present in the system.

[2] = Partition coefficients of CBZ and ROY in PEGMDA microgels from ethanol solutions; assay type: physicochemical; settings: ethanol solution
[3] = CBZ anhydrous forms; ambient conditions; cited from earlier work
[4] = Nucleation induction time of ASA / ACM with PEGDA or PEGDA-co-AM microgels in 38/62 ethanol/water; assay type: physicochemical; settings: for average nucleation induction time τ: ACM S = 3.7; for Average nucleation induction time τ (stretched exponential fit) / τ1 (two-exponential fit) / τ2 (two-exponential fit): ACM
Source text: Nucleation kinetics of model compounds was investigated by measuring the nucleation induction time probability distribution. Nucleation induction time is generally time elapsed prior to the formation of a detectable amount of the new crystalline phase. It is a useful indicator of the surface nucleation activity because it can be dramatically shortened when the presence of an interface lowers the free energy barrier of nucleation. Due to the stochastic nature of nucleation events, a large number of experiments were performed to obtain the probability distribution of nucleation induction time. To obtain the average induction time τ, statistical analysis on the induction time data was conducted based on the understanding that nucleation follows a Poisson distribution. According to Poisson statistics, the probability for a nucleation event to occur beyond time t is P=exp(−t/τ), which implies that the fraction of vials without nucleation at time t exponentially decays as a function of time, where the scaling factor for time is the average induction time.
For determining the statistical analysis of aspirin nucleation induction time with PEGDA particles of various mesh sizes (particles denoted by Mn), 1.9 mL of 38 mg/ml ASA solution in 38/62 ethanol/water (v/v) with 15 μg/mL PEGDA particles was cooled at a rate of 5° C./min from 35° C. to 15° C. to achieve a supersaturation of 2.1. The solution was stirred at 700 rpm. The onset of nucleation was detected by an IR probe which measures the transmission signal through the solution. A total of 10 vials were cycled for 5-10 times to yield 50-100 nucleation induction time measurements for the statistical analysis.
The nucleation rate, J, is given by J=1/τV, where τ the average induction time (Table 1) and V the volume of solution. For this equation to be valid, the assumption is that the crystal growth rate is much faster than the nucleation rate, which is the case for ASA. […] Other crystallization conditions were kept the same.
[…] The solution was stirred at 700 rpm. The onset of nucleation was detected by an IR probe which measures the transmission signal through the solution. A total of 10 vials were cycled for 5-10 times to yield 50-100 nucleation induction time data for the statistical analysis.
Effect of polymer gels on nucleation induction time statistics: To evaluate the impact of polymer-solute interactions on nucleation kinetics, induction times of ASA and ACM were measured with microgels of a series average mesh sizes before and after chemical modification suspended in respective supersaturated solutions. […] For each system, a large number of experiments (50-100) were conducted to obtain the induction time probability distribution. The nucleation induction time generally follows the Poisson distribution. However, deviations can occur, as observed in this study, when there is more than one type of nucleation sites in a sample, giving rise to multiple Poisson processes with different characteristic time scales.
For samples with PEGMDA microgels, the nucleation induction time distributions reported in previous work can be faithfully described by stretched exponentials (Tables 5 and 6), P=exp[−(t/τ)^β], where P is the probability to observe no crystallization event within time t, τ the average induction time. The stretched exponential exponent β served as a measure for the spread of time scales characterizing the nucleation process, or the distribution of kinetic barriers arisen from the heterogeneity of the system. Such heterogeneity can be attributed to the heterogeneity of the polymer microstructure identified using SANS, which resulted from a distribution of nucleation sites arising from spatial variations in both the mesh size and chemical composition of the hydrogel at nanometer length scales. Note that β varies with the average mesh size of the microgel. […]

[5] = Equilibrium partitioning of ASA / ACM into PEGDA and PEGDA-co-AM gels; assay type: physicochemical; settings: for increase in κ with modified gels: ACM
Procedure: This theory is exemplified by quantifying the partitioning of aspirin between the PEGDA gel phase and 38/62 ethanol/water (v/v), and determining the concentration of aspirin in the hydrogel particles. The partitioning experiments were performed at the same solution concentration and temperature as in the nucleation induction time experiments. In the partitioning experiment, both the concentrations of aspirin and ethanol were measured, as there are three species in the bulk solution, namely aspirin, ethanol and water, all of which partition in the gel phase to a certain degree determined by their relative interaction with the PEGDA polymer matrix.
Composition of aspirin solution in the PEGDA gel phase were compared with the bulk phase. PEGDA gels sufficiently large for convenient handling were synthesized by UV polymerization, following the same formulation as the synthesis of PEGDA particles used in the crystallization study. The PEGDA gels were washed with ethanol and vacuum dried to remove unreacted species. The gel was then immersed in excessive 38 mg/ml aspirin solution in 38/62 ethanol/water (v/v) and allowed sufficient time to reach equilibrium swelling at 15° C. before taken out, pad dried, and put in excessive water. After 5 hours immersed in water, the concentrations of aspirin and ethanol in the aqueous phase were analyzed by UV-Vis spectroscopy and Gas Chromatography, respectively.
In FIG. 10: Partitioning of aspirin vs. acetaminophen in the PEGDA gel. Y axis represents the relative API concentration in the PEGDA, normalized by the bulk concentration. The aspirin partitioning experiment was conducted in 38 mg/ml aspirin solution in 38/62 ethanol/water (v/v) at 15° C. As for acetaminophen, 95 mg/ml acetaminophen solution in 38/62 ethanol/water (v/v) was used and the equilibration temperature was 8° C. In both cases, the experimental conditions were kept the same as used in the nucleation induction time study.
Quantification of polymer-solute interactions: The strength of intermolecular interactions between the PEGDA-co-AM polymer network and the molecule to crystallize was characterized with the solute equilibrium partition coefficient at the same condition as used in the crystallization study. Solute partition coefficient κ, defined as the ratio of solute mass fraction in solution confined in the gel to that in the bulk, is a relevant parameter because it informs the solute concentration in the gel at the crystallization condition, which is an important factor affecting nucleation. […] The PEGDA polymers are comprised of the PEG subchain and the acrylate crosslinkers.
Partition coefficient measurements: Partition coefficients of ASA in PEGDA-co-AM gels from its bulk solution were determined as follows. In brief, a series of gels with varying mesh sizes of approximately 5 mm in diameter and 0.5 mm in thickness were synthesized via UV polymerization following the same formula as used in the microgel synthesis. The residue solvent, porogen and monomer molecules were removed by extensive washing with solvent ethanol and subsequent vacuum drying. The dry gels were then immersed in excessive volume of 38 mg/ml ASA solution in 38/62 (v/v) ethanol/water at 15° C. for overnight.

[6] = Solubility of ASA and ACM; assay type: physicochemical; settings: aqueous with cosolvent or surfactant or cyclodextrin; 38/62 (v/v) ethanol/water mixture at 25° C
[7] = CBZ, Bulk ethanol solution, S=1.63, T=25° C
[8] = CBZ, PEGMDA microgels M 130 g/mol
[9] = CBZ, PEGMDA microgels M 200 g/mol
[10] = PEGDA-co-AM microgels M 130 g/mol
[11] = PEGDA-co-AM microgels M 200 g/mol
[12] = PEGDA-co-AM microgels M 400 g/mol

average nucleation induction time τ [1, 7]: 427 ± 13 min | Polymorph [1, 8]: II & I | average nucleation induction time τ [1, 8]: 222 ± 5 min | Polymorph [1, 9]: II & I | average nucleation induction time τ [1, 9]: 174 ± 11 min | average nucleation induction time τ ([1]; CBZ, PEGMDA microgels M 400 g/mol): 10.9 ± 0.3 min | average nucleation induction time τ ([1]; CBZ, PEGMDA microgels M 575 g/mol): 33 ± 1 min | average nucleation induction time τ ([1]; CBZ, PEGMDA microgels M 700 g/mol): 49 ± 1 min | Polymorph crystallized ([1]; CBZ, PEGMDA microgels with M≧400 g/mol, ~250 trials): pure Form II | optimum mesh size for CBZ nucleation ([1]; PEGMDA microgels): 1.1 nm | Partition coefficient κ (solute mass fraction in gel solution / bulk) ([2]; PEGMDA microgels M 130 g/mol): 3.0 ± 0.4 | Partition coefficient κ (solute mass fraction in gel solution / bulk) ([2]; PEGMDA microgels M 200 g/mol): 2.7 ± 0.1 | Partition coefficient κ (solute mass fraction in gel solution / bulk) ([2]; PEGMDA microgels M 400 g/mol): 3.8 ± 0.2 | Partition coefficient κ (solute mass fraction in gel solution / bulk) ([2]; PEGMDA microgels M 575 g/mol): 3.8 ± 0.04 | Partition coefficient κ (solute mass fraction in gel solution / bulk) ([2]; PEGMDA microgels M 700 g/mol): 3.7 ± 0.1
Structure (SMILES): NC(=O)N1c2ccccc2C=Cc2ccccc21 [CBZ, carbamazepine]
Polymorph [1, 7]: concomitant crystallization of Forms I and II; also recorded: II & I, occasionally | energy separation between form III and II [3]: less than 0.7 kcal/mol

average nucleation induction time τ ([4]; Bulk (no particles), 38/62 ethanol/water): 6500 ± 1600 min | average nucleation induction time τ ([4]; PEGDA microparticles Mn 130 g/mol): 920 ± 70 min | average nucleation induction time τ ([4]; PEGDA microparticles Mn 200 g/mol): 540 ± 20 min | average nucleation induction time τ ([4]; PEGDA microparticles Mn 400 g/mol): 1720 ± 150 min | average nucleation induction time τ ([4]; PEGDA microparticles Mn 700 g/mol): 6500 ± 1600 min | Average nucleation induction time τ (stretched exponential fit) ([4]; Bulk): 37000 min | Average nucleation induction time τ (stretched exponential fit) ([4]; PEGDA microgels M 130 g/mol): 1600 min | Average nucleation induction time τ (stretched exponential fit) ([4]; PEGDA microgels M 200 g/mol): 480 min | Average nucleation induction time τ (stretched exponential fit) ([4]; PEGDA microgels M 400 g/mol): 5300 min | Average nucleation induction time τ (stretched exponential fit) ([4]; PEGDA microgels M 700 g/mol): 37000 min | τ1 (two-exponential fit) [4, 10]: 55 min | τ2 (two-exponential fit) [4, 10]: 1360 min | τ1 (two-exponential fit) [4, 11]: 88 min | τ2 (two-exponential fit) [4, 11]: 12400 min | τ1 (two-exponential fit) [4, 12]: 70 min | τ2 (two-exponential fit) [4, 12]: 35000 min | promotion of nucleation kinetics when AM co-monomer was introduced into the PEGDA matrix ([4]; PEGDA-co-AM vs PEGDA microgels): up to two orders of magnitude | best enhancement in nucleation kinetics by addition of PEGDA particles ([4]; vs bulk, Table 2): about ten-fold | increase in κ with modified gels ([5]; Mn=130 g/mol): 35% | increase in κ with modified gels ([5]; Mn=700 g/mol): 14% | solubility [6]: 90 mg/mL (≈ 595 mM)
Structure (SMILES): CC(=O)Nc1ccc(O)cc1 [acetaminophen]
acetaminophen concentration in PEGDA particles relative to bulk concentration ([5]; 95 mg/ml in 38/62 ethanol/water, 8° C, FIG. 10): approximately twice the bulk concentration
